Like-named read-outs stand apart in the source and are kept apart here. Where a SMILES comes first, the peptide text is derived from it. Bridges are numbered along the chain shown (N, C = ends). [ ]: non-standard residue; d: D form. The star is where a group is joined. hPhe(3-Cl-4-CF3) = N[C@@H](CCc1ccc(C(F)(F)F)c(Cl)c1)C(=O)O; NPrPhe(4-CF3) = CCCN[C@@H](Cc1ccc(C(F)(F)F)cc1)C(=O)O; NMeGly(cPent) = CN[C@H](C(=O)O)C1CCCC1; Gly(cPent) = N[C@H](C(=O)O)C1CCCC1; NMeD = CN[C@@H](CC(=O)O)C(=O)O; NMeL = CN[C@@H](CC(C)C)C(=O)O; Morpholide = C1CN(*)CCO1; NMeA = CN[C@@H](C)C(=O)O; Ac5c = NC1(C(=O)O)CCCC1; Aze = O=C(O)[C@@H]1CCN1; Sar = CNCC(=O)O
Experiments:
[1] = target: GDP-bound KRAS wild-type protein (Homo sapiens, UniProt P01116); assay: Binding to KRAS by surface plasmon resonance (SPR), Single Cycle Kinetics; conditions: GDP-bound KRAS wild-type protein, read-out: KRAS KD
GDP-bound KRAS wild-type protein, sequence (P01116 whole entry): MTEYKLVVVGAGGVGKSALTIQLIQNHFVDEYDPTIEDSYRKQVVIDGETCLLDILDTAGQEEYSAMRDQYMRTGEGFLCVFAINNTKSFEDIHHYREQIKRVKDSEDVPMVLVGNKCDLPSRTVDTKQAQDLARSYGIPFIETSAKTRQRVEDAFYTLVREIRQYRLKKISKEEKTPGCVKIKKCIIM

[2] = target: GDP-bound NRAS wild-type protein (Homo sapiens, UniProt P01111); assay: Binding to NRAS by surface plasmon resonance (SPR), Single Cycle Kinetics; conditions: for NRAS/KRAS (ratio of KD value for NRAS to KD value for KRAS) / NRAS/KRAS (ratio of KD value with respect to NRAS to KD value with respect to KRAS): SPR, GDP-bound NRAS wild-type protein vs GDP-bound KRAS wild-type protein
GDP-bound NRAS wild-type protein, sequence (P01111 whole entry): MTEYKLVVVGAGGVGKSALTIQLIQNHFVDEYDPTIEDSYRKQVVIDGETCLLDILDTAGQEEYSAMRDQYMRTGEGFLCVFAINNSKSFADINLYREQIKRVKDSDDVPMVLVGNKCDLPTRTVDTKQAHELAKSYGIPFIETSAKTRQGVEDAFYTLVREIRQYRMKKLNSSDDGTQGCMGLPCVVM

[3] = target: GDP-bound HRAS wild-type protein (Homo sapiens, UniProt P01112); assay: Binding to HRAS by surface plasmon resonance (SPR), Single Cycle Kinetics; conditions: for HRAS/KRAS (ratio of KD value for HRAS to KD value for KRAS) / HRAS/KRAS (ratio of KD value with respect to HRAS to KD value with respect to KRAS): SPR, GDP-bound HRAS wild-type protein vs GDP-bound KRAS wild-type protein
GDP-bound HRAS wild-type protein, sequence (P01112 whole entry): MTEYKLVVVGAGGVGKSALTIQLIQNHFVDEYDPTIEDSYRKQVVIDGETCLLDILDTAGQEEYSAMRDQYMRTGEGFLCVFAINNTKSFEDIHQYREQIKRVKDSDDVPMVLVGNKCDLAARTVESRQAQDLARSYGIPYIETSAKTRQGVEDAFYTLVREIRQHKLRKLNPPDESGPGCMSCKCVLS

[4] = SPR Single Cycle Kinetics, 1:1 binding model

| Structure (SMILES) | Kd ([1]; SPR, Single Cycle Kinetics) [pM] | Kd [1, 4] [pM] | NRAS/KRAS (ratio of KD value for NRAS to KD value for KRAS) [2] | HRAS/KRAS (ratio of KD value for HRAS to KD value for KRAS) [3] | also measured |
| --- | --- | --- | --- | --- | --- |
| CCO[C@@H]1C[C@H]2C(=O)NC3(CCC3)C(=O)N(C)[C@@H](C3CCCC3)C(=O)N(C)[C@H](C(=O)N(CC)CC)CC(=O)N(C)[C@@H](C)C(=O)N[C@@H]([C@@H](C)CC)C(=O)N(C)CC(=O)N(C)[C@H]3C/C=C\CCN(C3=O)[C@@H](Cc3ccc(C(F)(F)F)cc3)C(=O)N(C)CC(=O)N[C@@H](CCc3cc(F)c(C(F)(F)F)c(F)c3)C(=O)N2C1 [PP1308, (2S,8S,12R,14S,20S,23S,27S,30S,36S,38Z)-20-cyclopentyl-8-[2-[3,5-difluoro-4-(trifluoromethyl)phenyl]ethyl]-12-ethoxy-N,N-diethyl-4,19,22,26,27,32,35-heptamethyl-30-[(1S)-1-methylpropyl]-3,6,9,15,18,21,25,28,31,34,42-undecaoxo-2-[[4-(trifluoromethyl)phenyl]methyl]spiro[1,4,7,10,16,19,22,26,29,32,35-undecazatricyclo[34.5.1.0^10,14]dotetracont-38-ene-17,1′-cyclobutane]-23-carboxamide] |  |  |  |  | Kd ([1]; SPR, Single Cycle Kinetics, 1:1 binding model): 100 pM; NRAS/KRAS (ratio of KD value for NRAS to KD value for KRAS) ([2]; KD ratio class): A (a compound having 10 or more and less than 20 is denoted as A); HRAS/KRAS (ratio of KD value for HRAS to KD value for KRAS) ([3]; KD ratio class): A (a compound having 10 or more and less than 20 is denoted as A) |
| CCO[C@@H]1C[C@H]2C(=O)NC3(CC(F)(F)C3)C(=O)N(C)[C@@H](C3CCCC3)C(=O)N(C)[C@H](C(=O)N3CCOCC3)CC(=O)N(C)[C@@H](CC(C)C)C(=O)N[C@@H]([C@@H](C)CC)C(=O)N(C)CC(=O)N(C)[C@H]3C[C@H]4C[C@H]4CN(C3=O)[C@@H](Cc3ccc(C(F)(F)F)cc3)C(=O)N(C)CC(=O)N[C@@H](CCc3cc(F)c(C(F)(F)F)c(F)c3)C(=O)N2C1 [PP0831] | 320 |  | C (A compound having a KD ratio of 0.1 or more and less than 3 is denoted as C) | C (A compound having a KD ratio of 0.1 or more and less than 3 is denoted as C) |  |
| C=CC[C@H]1C(=O)N[C@@H]([C@@H](C)CC)C(=O)N(C)CC(=O)N(C)[C@H]2CCCCN(C2=O)[C@@H](Cc2ccc(C(F)(F)F)cc2)C(=O)N(C)CC(=O)N[C@@H](CCc2cc(F)c(C(F)(F)F)c(F)c2)C(=O)N2C[C@H](OCC)C[C@H]2C(=O)NC2(CCC2)C(=O)N(C)[C@@H](C2CCCC2)C(=O)N(C)[C@H](C(=O)N2CCOCC2)CC(=O)N1C [PP0710] |  | 29 |  |  | NRAS/KRAS (ratio of KD value with respect to NRAS to KD value with respect to KRAS) [2]: C (A compound having a KD ratio of 0.1 or more and less than 3 is denoted as C); HRAS/KRAS (ratio of KD value with respect to HRAS to KD value with respect to KRAS) [3]: B (a compound having 3 or more and less than 10 is denoted as B) |
| CCCN1C(=O)[C@@H]2CCN2C(=O)[C@H](C)N(C)C(=O)[C@H](C2CCCC2)NC(=O)[C@H](CC(C)C)N(C)C(=O)C[C@@H](C(=O)N2CCOCC2)N(C)C(=O)[C@H](C2CCCC2)N(C)C(=O)C2(CCCC2)NC(=O)[C@@H]2CCCN2C(=O)[C@H](CCc2ccc(C(F)(F)F)c(Cl)c2)NC(=O)CN(C)C(=O)[C@@H]1Cc1ccc(C(F)(F)F)cc1 [PP0272] ([NMeL][Gly(cPent)][NMeA][Aze][NPrPhe(4-CF3)][Sar][hPhe(3-Cl-4-CF3)]P[Ac5c][NMeGly(cPent)][NMeD]-Morpholide; lactam N-11) |  | 170 | C (A compound having a KD ratio of 0.1 or more and less than 3 is denoted as C) | B (a compound having 3 or more and less than 10 is denoted as B) |  |
| CC[C@H](C)[C@@H]1NC(=O)[C@H](CC)N(C)C(=O)C[C@@H](C(=O)N(C)C)N(C)C(=O)[C@H](C2CCCC2)N(C)C(=O)C2(CCC2)NC(=O)[C@@H]2C[C@H](N3CCC(F)(F)CC3)CN2C(=O)[C@H](CCc2cc(F)c(C(F)(F)F)c(F)c2)NC(=O)CN(C)C(=O)[C@H](Cc2ccc(C(F)(F)F)cc2)N2CCCC[C@@H](C2=O)N(C)C(=O)CN(C)C1=O [PP0732] |  | 39 |  |  | NRAS/KRAS (ratio of KD value with respect to NRAS to KD value with respect to KRAS) [2]: C (A compound having a KD ratio of 0.1 or more and less than 3 is denoted as C); HRAS/KRAS (ratio of KD value with respect to HRAS to KD value with respect to KRAS) [3]: B (a compound having 3 or more and less than 10 is denoted as B) |
| CCO[C@@H]1C[C@H]2C(=O)NC3(CCC3)C(=O)N(C)[C@@H](C3CCCC3)C(=O)N(C)[C@H](C(=O)N(C)C)CC(=O)N(C)[C@@H](CC)C(=O)N[C@@H]([C@@H](C)CC)C(=O)N(C)CC(=O)N(C)[C@H]3CCCCN(C3=O)[C@@H](Cc3ccc(C(F)(F)F)cc3)C(=O)N(C)CC(=O)N[C@@H](CCc3c(F)c(F)c(C(F)(F)F)c(F)c3F)C(=O)N2C1 [PP0886] | 86 |  | C (A compound having a KD ratio of 0.1 or more and less than 3 is denoted as C) | B (a compound having 3 or more and less than 10 is denoted as B) |  |
| CCO[C@@H]1C[C@H]2C(=O)NC3(CCCC3)C(=O)N(C)[C@@H](C3CCCC3)C(=O)N(C)[C@H](C(=O)N3CCOCC3)CC(=O)N(C)[C@@H](CC(C)C)C(=O)N[C@@H]([C@@H](C)CC)C(=O)N(C)CC(=O)N(C)[C@H]3CC(C)=CCN(C3=O)[C@@H](Cc3ccc(C(F)(F)F)cc3)C(=O)N(C)CC(=O)N[C@@H](CCc3cc(F)c(C(F)(F)F)c(F)c3)C(=O)N2C1 [PP1038] | 3000 |  | C (A compound having a KD ratio of 0.1 or more and less than 3 is denoted as C) | C (A compound having a KD ratio of 0.1 or more and less than 3 is denoted as C) |  |

Further lines, with some results ahead:

| Kd ([1]; SPR, Single Cycle Kinetics) [pM] | Kd [1, 4] [pM] | Structure (SMILES) | NRAS/KRAS (ratio of KD value for NRAS to KD value for KRAS) [2] | HRAS/KRAS (ratio of KD value for HRAS to KD value for KRAS) [3] | also measured |
| --- | --- | --- | --- | --- | --- |
| 380 |  | CCC[C@H]1C(=O)N[C@@H]([C@@H](C)CC)C(=O)N(C)CC(=O)N(C)[C@H]2C/C=C\CCN(C2=O)[C@@H](Cc2ccc(C)cc2)C(=O)N(C)CC(=O)N[C@@H](CCc2ccc(C(F)(F)F)c(Cl)c2)C(=O)N2C[C@H](OCC)C[C@H]2C(=O)NC2(CC(C)(C)C2)C(=O)N(C)[C@@H](CC(C)C)C(=O)N(C)[C@H](C(=O)N(C)C)CC(=O)N1C [PP2224] | A (a compound having 10 or more and less than 20 is denoted as A) | A (a compound having 10 or more and less than 20 is denoted as A) |  |
|  | 210 | CCO[C@@H]1C[C@H]2C(=O)NC3(CC(C)(C)C3)C(=O)N(C)[C@@H](C(CC)CC)C(=O)N(C)[C@H](C(=O)N3CCCC3)CC(=O)N(C)[C@H]3CCC/C=C/c4ccc(cc4)C[C@@H](C(=O)N(C)CC(=O)N[C@@H](CCc4ccc(Cl)c(Cl)c4)C(=O)N2C1)N1CC/C=C\C[C@@H](C1=O)N(C)C(=O)CN(C)C(=O)[C@H]([C@@H](C)CC)NC3=O [PP2581] |  |  | NRAS/KRAS (ratio of KD value with respect to GDP-bound NRAS wild-type protein to KD value with respect to KRAS) ([2]; SPR KD ratio NRAS/KRAS, class symbols): AA (a compound having 20 or more is denoted as AA); HRAS/KRAS (ratio of KD value with respect to GDP-bound HRAS wild-type protein to KD value with respect to KRAS) ([3]; SPR KD ratio HRAS/KRAS, class symbols): A (a compound having 10 or more and less than 20 is denoted as A) |
| 100 |  | CCCCO[C@H]1CCN2C(=O)[C@H](CCc3cc(F)c(C(F)(F)F)c(F)c3)NC(=O)CN(C)C(=O)[C@H](Cc3ccc(C(F)(F)F)cc3)N3CCCC[C@@H](C3=O)N(C)C(=O)CN(C)C(=O)[C@H]([C@@H](C)CC)NC(=O)[C@H](CC(C)C)N(C)C(=O)C[C@@H](C(=O)N3CCOCC3)N(C)C(=O)[C@H](C3CCCC3)N(C)C(=O)C3(CCC3)NC(=O)[C@H]12 [PP1071] | B (a compound having 3 or more and less than 10 is denoted as B) | B (a compound having 3 or more and less than 10 is denoted as B) |  |

Reference: US20240158446A1, “CYCLIC COMPOUND HAVING SELECTIVE INHIBITORY ACTION ON KRAS OVER HRAS AND NRAS” (CHUGAI SEIYAKU KABUSHIKI KAISHA, priority 2021, published 2024)
